In general, inhibition refers to the change of the read-out against control, counted positive when it falls. The IC50 is the concentration at which inhibition is half-maximal.

T1 sequence (P26663 2420-3010): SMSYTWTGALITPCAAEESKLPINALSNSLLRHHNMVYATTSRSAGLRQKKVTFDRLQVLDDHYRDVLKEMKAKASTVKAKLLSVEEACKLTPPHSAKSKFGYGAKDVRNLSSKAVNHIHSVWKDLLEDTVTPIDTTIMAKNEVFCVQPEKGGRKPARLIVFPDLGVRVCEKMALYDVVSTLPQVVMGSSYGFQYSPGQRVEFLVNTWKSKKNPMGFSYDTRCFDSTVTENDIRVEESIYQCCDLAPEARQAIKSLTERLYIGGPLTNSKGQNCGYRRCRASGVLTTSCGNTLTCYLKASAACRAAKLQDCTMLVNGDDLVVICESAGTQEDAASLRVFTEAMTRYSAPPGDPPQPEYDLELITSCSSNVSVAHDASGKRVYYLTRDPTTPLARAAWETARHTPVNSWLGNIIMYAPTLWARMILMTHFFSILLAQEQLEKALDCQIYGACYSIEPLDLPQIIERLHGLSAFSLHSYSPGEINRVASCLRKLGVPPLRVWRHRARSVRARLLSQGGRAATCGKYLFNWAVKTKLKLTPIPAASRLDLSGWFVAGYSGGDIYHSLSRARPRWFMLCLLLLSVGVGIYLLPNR

One experiment addresses T1, HCV polymerase (Hepatitis C virus genotype 1b, UniProt P26663).
T1 construct: 2.5 pmoles (0.15 μg) HCV polymerase protein in a final volume of 75 μL
The experiment in a line: HCV polymerase primer/template-directed transcription assay (32P-GTP incorporation, filter binding). The experiment is classed as biochemical. Particulars: @ 50 uM compound; given where IC50 was impractical to calculate; read-out: percent inhibition. Summed up:
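Recombinant genotype 1b polymerase (30 nM) extended biotin-dG12 primer on poly(rC)300 template with 1 μM GTP plus α-32P-GTP, pH 7.2, 10 mM MgCl2, 30 min at 30° C, 1% DMSO final. Products captured on DE filters and counted. IC50 fitted from triplicate cpm, with a tight-binding correction applied below 200 nM.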
For the compound `O=C(O)CC(O)(CCNC(=O)CCc1ccco1)C1CCCC1` (stereo not drawn) [H(5), 3-Cyclopentyl-5-(3-furan-2-yl-propionylamino)-3-hydroxy-pentanoic acid], the inhibition at 50 µM was 7%.

On to `O=C1CC(=O)OC(CSc2ncccn2)(C2CCCC2)C1` (stereo not drawn) [I(1), 6-cyclopentyl-6-[(pyrimidin-2-ylthio)methyl]dihydro-2H-pyran-2,4(3H)-dione], for which the inhibition at 50 µM was 27%. Same read-out and setting: in the case of `O=C1CC(=O)OC(CSCc2ccco2)(C2CCCC2)C1` (stereo not drawn) [I(2), 6-cyclopentyl-6-{[(2-furylmethyl)thio]methyl}dihydro-2H-pyran-2,4(3H)-dione] it was 22%; in that of `CCOc1ccc2nc(SCC3(C4CCCC4)CC(=O)CC(=O)O3)sc2c1` (stereo not drawn) [I(3), 6-cyclopentyl-6-{[(6-ethoxy-1,3-benzothiazol-2-yl)thio]methyl}dihydro-2H-pyran-2,4(3H)-dione], -2%. The same measure, in the same setting: in the case of `CC(C)c1ccc(SCC2(C3CCCC3)CC(=O)CC(=O)O2)cc1` (stereo not drawn) [I(4), 6-cyclopentyl-6-{[(4-isopropylphenyl)thio]methyl}dihydro-2H-pyran-2,4(3H)-dione] it was 44%.

Still in this experiment, the particulars now being: recombinant HCV polymerase; 30 minutes at 30° C.; concentration giving 50% inhibition of polymerase-directed transcription; read-out: IC50.
With `O=C1CC(=O)OC(CCNC(=O)CCc2ccco2)(C2CCCC2)C1` (stereo not drawn) [H(1), N-[2-(2-Cyclopentyl-4,6-dioxo-tetrahydro-pyran-2-yl)-ethyl]-3-furan-2-yl-propionamide], the concentration for half-maximal inhibition (IC50) worked out at 1 µM. Same read-out and setting: under `O=C1CC(=O)OC(CCNC(=O)c2ccco2)(C2CCCC2)C1` (stereo not drawn) [H(2), Furan-2-carboxylic acid [2-(2-cyclopentyl-4,6-dioxo-tetrahydro-pyran-2-yl)-ethyl]-amide] stands 51 µM. Turning to `O=C1CC(=O)OC(CCCNC(=O)CCc2ccco2)(C2CCCC2)C1` (stereo not drawn) [H(3), N-[3-(2-Cyclopentyl-4,6-dioxo-tetrahydro-pyran-2-yl)-propyl]-3-furan-2-yl-propionamide], the 50% inhibitory concentration (IC50) is 1.2 µM. The same measure, in the same setting: under `Cc1cc(C)n2nc(SC3=C(O)CC(CCNC(=O)CCc4ccco4)(C4CCCC4)OC3=O)nc2n1` (stereo not drawn) [H(4), N-{2-[2-Cyclopentyl-5-(5,7-dimethyl-[1,2,4]triazolo[1,5-a]pyrimidin-2-ylsulfanyl)-4-hydroxy-6-oxo-3,6-dihydro-2H-pyran-2-yl]-ethyl}-3-furan-2-yl-propionamide] stands 60 µM.

Values taken from patent US7473790B2 (Pfizer Inc., priority 2003, dated 2009).
